Results reported in patent US7910305B2, “Methods for screening for compounds that modulate insulin promoter activity” (The Burnham Institute for Medical Research, priority 2005, dated 2011).
Peptide text beside a SMILES is read from it. * marks the point of attachment. Cbz = O=C(OCc1ccccc1)*

Legend:
[1] = test system: human insulin gene (hINS) promoter-eGFP reporter in MIN6 mouse insulinoma cells; experiment: insulin promoter-destabilized eGFP reporter fluorescence in engineered MIN6 cells; type: cell-based; conditions: 384-well plates, three-fold titration series, imaged 48 hours after compound addition
Text: We have developed a screen for small molecule compounds that modulate insulin promoter activity. Identifying these compounds and eventually their targets should provide insights into the signaling pathways that control insulin expression. The assay is based upon a mouse insulinoma, MIN6, that normally expresses insulin mRNA. This cell was engineered to stably contain two cassettes that use a fluorescent reporter protein to monitor insulin promoter activity and a housekeeping gene activity. The primary assay is to detect compounds that alter expression of an insulin promoter-destabilized eGFP reporter cassette in mouse insulinoma (MIN6) cells relative to that of a housekeeping gene, heat shock protein 68, the promoter of which is used in a second cassette to direct expression of destabilized dsRED2. […]
Engineering of MIN6 for Image-Based, High Throughput Screening. […] Viral supernatants harvested at 24 to 72 hours were 0.45 μm filtered and concentrated 100- to 200-fold by ultrafiltration using Centricon Plus-80 units (Millipore, Bedford, Mass., USA), yielding titers of approximately 10^9 transducing units (TU) per milliliter 5, determined by transduction of 293T cells with serial dilutions of the pRRL.SIN-18.cPPT.hPGK-EGFP.WPRE viral supernatant and FACS analysis to determine the percentage of EGFP-expressing cells. […]

[2] = test system: human insulin promoter-eGFP reporter in T6PN/E47MER cells; experiment: insulin promoter-eGFP reporter fluorescence in T6PN/E47MER cells; type: cell-based; conditions: T6PN/E47MER cells infected with insulin promoter-eGFP lentiviral vector
Text: (§1) To increase the level of insulin expression, TRM-6 cells expressing PDX-1 and NeuroD1 (T6PN cells) (Follenzi et al., Nature Genet. 25:217-222, 2000) were infected with an E47^MER retroviral vector and selected by FACS. E47^MER consists of the class I bHLH factor E47 which is a potent insulin transactivator fused to a mutated estrogen receptor that renders it functional only in the presence of tamoxifen. […] To determine whether the effects of E47 were limited to insulin expression or had more general effects on beta-cell differentiation, a panel of other beta-cell genes was examined. […] Thus, T6PN/E47^MER cells express a substantial number of important beta-cell genes, making them an appropriate target for the insulin promoter screens described herein.
Assay Protocol. The following is a detailed assay protocol for the primary assay, i.e., first assay performed in a testing scheme to identify biologically active chemical entities in a screening mode: […]

insulin mRNA = experiment: RT-PCR for endogenous insulin mRNA in T6PN/E47MER cells; type: cell-based, human
Text: (A) Insulin mRNA is barely detectable by non-quantitative RT-PCR in the absence of tamoxifen in two biological replicates of T6PN/E47^MER cells.
Cells were exposed to 5 micromolar compound and also had 0.5 micromolar tamoxifen. […] […] Both GFP and insulin mRNA levels are normalized for GAPDH mRNA to rule out nonspecific effects of the compounds on transcription.
as §1
Second Confirmatory Assay. Compounds that passed the primary confirmatory assay were passed on for further testing in a secondary confirmatory assay. This consisted of RT-PCR of GFP and endogenous insulin mRNA (FIG. 7). Both GFP and endogenous insulin RT-PCR assays are performed because of the possibility that a compound may affect the 1.4 kb insulin promoter transgene but not the endogenous insulin promoter, which may be under more complex control.

myosin heavy chain gene = experiment: RT-PCR for myosin heavy chain gene in T6PN/E47MER cells; type: cell-based, human

## CC(C)C[C@@H](C=O)NC(=O)[C@H](CC(C)C)NC(=O)[C@H](CC(C)C)NC(=O)OCc1ccccc1 [MG132] (Cbz-Leu-Leu-Leu-aldehyde)
[1]
  eGFP fluorescence: dose-dependent increase in eGFP fluorescence

## C[C@@H]1C[C@@H]([C@H](O)CC2CC(=O)NC(=O)C2)C(=O)[C@@H](C)C1 [cyclohexamide]
[1]
  eGFP fluorescence: decrease in fluorescence intensity

## CC/C(=C(\c1ccccc1)c1ccc(OCCN(C)C)cc1)c1ccccc1 [tamoxifen]
[2]
  eGFP induction: High levels of eGFP
Insulin mRNA; 4 micromolar tamoxifen control
  insulin mRNA (RT-PCR), positive control: maximum induction of insulin mRNA
Insulin mRNA; T6PN/E47MER cells with versus without tamoxifen, two biological replicates
  insulin mRNA by non-quantitative RT-PCR: strongly induced
Insulin mRNA; T6PN/E47MER cells, E47 activity induced by tamoxifen, two biological replicates
  insulin mRNA by quantitative real-time RT-PCR: dramatic upregulation of insulin mRNA
Insulin mRNA; induction of E47 activity (E47MER functional only with tamoxifen) in T6PN cells
  induction of insulin gene expression: 100 fold
Myosin heavy chain gene
  myosin heavy chain gene induction: not induced
